Literature values as cited in US6423864B1, “Purification of N-[N-(3,3-dimethylbutyl)-L-α-aspartyl]-L-phenylalanine 1-methyl ester via crystallization” (The NutraSweet Company, priority 1998, dated 2002).

Conditions: relative to sucrose; background statement

For `COC(=O)[C@H](Cc1ccccc1)NC(=O)[C@H](CC(=O)O)NCCC(C)(C)C` [neotame, N-[N-(3,3-dimethylbutyl)-L-α-aspartyl]-L-phenylalanine 1-methyl ester], the “sweetness potency (sweeter than sucrose)” value is given as “about 8000 ×”.
